Measured values as given in article PMC11062894, “Protein-based bandpass filters for controlling cellular signaling with chemical inputs” (Nature Chemical Biology, 2023).
Where “and” joins values, the source holds several entries; their conditions need not be identical. Identical values can stand only once.

System: GEMS receptors with CBPvene (Bcl2–LD3 and Bcl2high variants), STAT3-driven SEAP in HEK293T cells
Assay: GEMS SEAP reporter assay, CBPvene (Bcl2high, LD3-v and Bcl2-v variants) with venetoclax
Type: cell-based
[1] = CBPVene-v5-Bcl2v2, Venetoclax 1000 nM
[2] = CBPVene-v5-Bcl2v2, Venetoclax 3160 nM
[3] = CBPVene-v5-Bcl2v2, Venetoclax 10000 nM
[4] = CBPVene-v5-LD3v1, Venetoclax 1 nM
[5] = CBPVene-v5-LD3v1, Venetoclax 3.16 nM
[6] = CBPVene-v5-LD3v1, Venetoclax 10 nM
[7] = CBPVene-v5-LD3v1, Venetoclax 31.6 nM
[8] = CBPVene-v5-LD3v1, Venetoclax 316 nM
[9] = CBPVene-v5-LD3v1, Venetoclax 1000 nM
[10] = CBPVene-v5-LD3v1, Venetoclax 10000 nM
[11] = Supp Fig 10a, Bcl2-v1, venetoclax 316 nM
[12] = Supp Fig 10a, Bcl2-v1, venetoclax 1000 nM
[13] = Supp Fig 10a, Bcl2-v1, venetoclax 3160 nM
[14] = Supp Fig 10a, Bcl2-v1, venetoclax 10000 nM
[15] = Supp Fig 10a, Bcl2-v2, venetoclax 316 nM
[16] = Supp Fig 10a, Bcl2-v2, venetoclax 1000 nM
[17] = Supp Fig 10a, Bcl2-v2, venetoclax 3160 nM
[18] = Supp Fig 10a, Bcl2-v2, venetoclax 10000 nM
[19] = Supp Fig 10a, Bcl2-v3, venetoclax 316 nM
[20] = Supp Fig 10a, Bcl2-v3, venetoclax 1000 nM
[21] = Supp Fig 10a, Bcl2-v3, venetoclax 3160 nM
[22] = Supp Fig 10a, Bcl2-v3, venetoclax 10000 nM
[23] = Supp Fig 10a, Bcl2-v4, venetoclax 316 nM
[24] = Supp Fig 10a, Bcl2-v4, venetoclax 1000 nM
[25] = Supp Fig 10a, Bcl2-v4, venetoclax 3160 nM
[26] = Supp Fig 10a, Bcl2-v4, venetoclax 10000 nM
[27] = Supp Fig 10a, Bcl2-v5, venetoclax 316 nM
[28] = Supp Fig 10a, Bcl2-v5, venetoclax 1000 nM
[29] = Supp Fig 10a, Bcl2-v5, venetoclax 3160 nM
[30] = Supp Fig 10a, Bcl2-v5, venetoclax 10000 nM
[31] = Supp Fig 10a, Bcl2-v6, venetoclax 316 nM
[32] = Supp Fig 10a, Bcl2-v6, venetoclax 1000 nM
[33] = Supp Fig 10a, Bcl2-v6, venetoclax 3160 nM
[34] = Supp Fig 10a, Bcl2-v6, venetoclax 10000 nM
[35] = Supp Fig 10a, Bcl2, venetoclax 316 nM
[36] = Supp Fig 10a, Bcl2, venetoclax 1000 nM
[37] = Supp Fig 10a, Bcl2, venetoclax 3160 nM
[38] = Supp Fig 10a, Bcl2, venetoclax 10000 nM
[39] = Supp Fig 10b, Bcl2-v1, venetoclax 1 nM
[40] = Supp Fig 10b, Bcl2-v1, venetoclax 3.16 nM
[41] = Supp Fig 10b, Bcl2-v1, venetoclax 10 nM
[42] = Supp Fig 10b, Bcl2-v1, venetoclax 31.6 nM
[43] = Supp Fig 10b, Bcl2-v1, venetoclax 100 nM
[44] = Supp Fig 10b, Bcl2-v1, venetoclax 316 nM
[45] = Supp Fig 10b, Bcl2-v1, venetoclax 1000 nM
[46] = Supp Fig 10b, Bcl2-v1, venetoclax 3160 nM
[47] = Supp Fig 10b, Bcl2-v1, venetoclax 10000 nM
[48] = Supp Fig 10b, Bcl2-v2, venetoclax 1 nM
[49] = Supp Fig 10b, Bcl2-v2, venetoclax 3.16 nM
[50] = Supp Fig 10b, Bcl2-v2, venetoclax 10 nM
[51] = Supp Fig 10b, Bcl2-v2, venetoclax 31.6 nM
[52] = Supp Fig 10b, Bcl2-v2, venetoclax 100 nM
[53] = Supp Fig 10b, Bcl2-v2, venetoclax 316 nM
[54] = Supp Fig 10b, Bcl2-v2, venetoclax 1000 nM
[55] = Supp Fig 10b, Bcl2-v3, venetoclax 1 nM
[56] = Supp Fig 10b, Bcl2-v3, venetoclax 3.16 nM
[57] = Supp Fig 10b, Bcl2-v3, venetoclax 10 nM
[58] = Supp Fig 10b, Bcl2-v3, venetoclax 31.6 nM
[59] = Supp Fig 10b, Bcl2-v3, venetoclax 100 nM
[60] = Supp Fig 10b, Bcl2-v3, venetoclax 316 nM
[61] = Supp Fig 10b, Bcl2-v3, venetoclax 1000 nM
[62] = Supp Fig 10b, Bcl2-v3, venetoclax 3160 nM
[63] = Supp Fig 10b, Bcl2-v3, venetoclax 10000 nM
[64] = Supp Fig 10b, Bcl2-v4, venetoclax 1 nM
[65] = Supp Fig 10b, Bcl2-v4, venetoclax 3.16 nM
[66] = Supp Fig 10b, Bcl2-v4, venetoclax 10 nM
[67] = Supp Fig 10b, Bcl2-v4, venetoclax 31.6 nM

CC1(C)CCC(CN2CCN(c3ccc(C(=O)NS(=O)(=O)c4ccc(NCC5CCOCC5)c([N+](=O)[O-])c4)c(Oc4cnc5[nH]ccc5c4)c3)CC2)=C(c2ccc(Cl)cc2)C1 [Venetoclax]
Normalized data Figure 5f [1]: 77.3797 and 77.4841 and 64.4738
Raw data Figure 5f [1]: 141.449 and 149.007 and 144.09
Normalized data Figure 5f [2]: 35.229 and 32.7238 and 23.2546
Raw data Figure 5f [2]: 64.398 and 62.9303 and 51.9708
Normalized data Figure 5f [3]: 15.1423 and 11.3283 and 13.9843
Raw data Figure 5f [3]: 27.6798 and 21.7852 and 31.253
Raw data of Independent repeat of CBPVene-v5 vs CBPVene-v5-LD3v1 (CBPVene-v5-LD3v1, Venetoclax 0.01 nM): 12.511 and 11.9088 and 12.8792
Normalized data Figure 5c [4]: 16.3682 and 15.9533 and 20.5713
Raw data Figure 5c [4]: 17.8707 and 19.0514 and 21.7836
Raw data of Independent repeat of CBPVene-v5 vs CBPVene-v5-LD3v1 [4]: 12.1852 and 11.7838 and 11.0502
Normalized data Figure 5c [5]: 15.1322 and 15.2538 and 18.8062
Raw data Figure 5c [5]: 16.5212 and 18.216 and 19.9144
Raw data of Independent repeat of CBPVene-v5 vs CBPVene-v5-LD3v1 [5]: 10.1265 and 10.196 and 11.563
Normalized data Figure 5c [6]: 22.3408 and 21.0089 and 24.5666
Raw data Figure 5c [6]: 24.3915 and 25.0888 and 26.0143
Raw data of Independent repeat of CBPVene-v5 vs CBPVene-v5-LD3v1 [6]: 13.7645 and 12.6779 and 10.7132
Normalized data Figure 5c [7]: 35.5947 and 28.4669 and 38.0182
Raw data Figure 5c [7]: 38.8619 and 33.9951 and 40.2586
Raw data of Independent repeat of CBPVene-v5 vs CBPVene-v5-LD3v1 [7]: 17.7633 and 18.8924 and 25.5
Raw data of Independent repeat of CBPVene-v5 vs CBPVene-v5-LD3v1 (CBPVene-v5-LD3v1, Venetoclax 100 nM): 38.3822 and 37.0306 and 47.6081
Normalized data Figure 5c [8]: 100
Raw data Figure 5c [8]: 109.179 and 119.42 and 105.893
Raw data of Independent repeat of CBPVene-v5 vs CBPVene-v5-LD3v1 [8]: 60.7806 and 63.7576 and 57.9589
Normalized data Figure 5c [9]: 77.7899 and 68.2523 and 65.7986
Raw data Figure 5c [9]: 84.9301 and 81.5067 and 69.6762
Raw data of Independent repeat of CBPVene-v5 vs CBPVene-v5-LD3v1 [9]: 40.6135 and 38.6218 and 45.893
Raw data of Independent repeat of CBPVene-v5 vs CBPVene-v5-LD3v1 (CBPVene-v5-LD3v1, Venetoclax 3160 nM): 20.9864 and 23.9183 and 23.9906
Normalized data Figure 5c [10]: 10.3166 and 8.27 and 9.621
Raw data Figure 5c [10]: 11.2636 and 9.876 and 10.1879
SEAP (U/L) (Figure 4h, Venetoclax 1 nM, representative data and independent repeats 1, 2 (triplicates)): 40.3558 U/L and 36.3798 U/L and 44.7796 U/L and 29.5956 U/L and 26.0853 U/L and 29.9849 U/L
SEAP [11]: 16.9918
SEAP normalized (max=100) [11]: 72.9686
SEAP [12]: 11.8168
SEAP normalized (max=100) [12]: 50.7451
SEAP [13]: 18.4889
SEAP normalized (max=100) [13]: 79.3975
SEAP [14]: 5.997
SEAP normalized (max=100) [14]: 25.7548
SEAP [15]: 33.4045
SEAP normalized (max=100) [15]: 100
SEAP [16]: 18.2725
SEAP normalized (max=100) [16]: 54.7009
SEAP [17]: 17.6043
SEAP normalized (max=100) [17]: 52.7004
SEAP [18]: 8.798
SEAP normalized (max=100) [18]: 26.337
SEAP [19]: 24.8752
SEAP normalized (max=100) [19]: 70.756
SEAP [20]: 15.674
SEAP normalized (max=100) [20]: 44.5837
SEAP [21]: 8.48
SEAP normalized (max=100) [21]: 24.1195
SEAP [22]: 5.027
SEAP normalized (max=100) [22]: 14.2997
SEAP [23]: 20.3221
SEAP normalized (max=100) [23]: 44.5121
SEAP [24]: 12.5122
SEAP normalized (max=100) [24]: 27.4059
SEAP [25]: 8.91
SEAP normalized (max=100) [25]: 19.5153
SEAP [26]: 6.178
SEAP normalized (max=100) [26]: 13.5319
SEAP [27]: 16.3938
SEAP normalized (max=100) [27]: 41.8642
SEAP [28]: 8.859
SEAP normalized (max=100) [28]: 22.6219
SEAP [29]: 8.087
SEAP normalized (max=100) [29]: 20.652
SEAP [30]: 5.778
SEAP normalized (max=100) [30]: 14.7539
SEAP [31]: 25.9953
SEAP normalized (max=100) [31]: 62.1077
SEAP [32]: 19.2478
SEAP normalized (max=100) [32]: 45.9867
SEAP [33]: 13.59
SEAP normalized (max=100) [33]: 32.4691
SEAP [34]: 7.797
SEAP normalized (max=100) [34]: 18.6277
SEAP [35]: 206.027
SEAP normalized (max=100) [35]: 100
SEAP [36]: 118.152
SEAP normalized (max=100) [36]: 57.3479
SEAP [37]: 9.9385
SEAP normalized (max=100) [37]: 4.824
SEAP [38]: 6.696
SEAP normalized (max=100) [38]: 3.25
SEAP [39]: 44.2279
SEAP normalized (max=100) [39]: 81.6306
SEAP [40]: 50.6217
SEAP normalized (max=100) [40]: 93.4314
SEAP [41]: 46.5279
SEAP normalized (max=100) [41]: 85.8756
SEAP [42]: 52.0969
SEAP normalized (max=100) [42]: 96.1542
SEAP [43]: 54.1806
SEAP normalized (max=100) [43]: 100
SEAP [44]: 42.1946
SEAP normalized (max=100) [44]: 77.8778
SEAP [45]: 16.2179
SEAP normalized (max=100) [45]: 29.933
SEAP [46]: 5.677
SEAP normalized (max=100) [46]: 10.4785
SEAP [47]: 3.434
SEAP normalized (max=100) [47]: 6.3381
SEAP [48]: 36.2682
SEAP normalized (max=100) [48]: 14.0118
SEAP [49]: 38.2081
SEAP normalized (max=100) [49]: 14.7612
SEAP [50]: 49.7513
SEAP normalized (max=100) [50]: 19.2208
SEAP [51]: 115.969
SEAP normalized (max=100) [51]: 44.8031
SEAP [52]: 258.841
SEAP normalized (max=100) [52]: 100
SEAP [53]: 180.703
SEAP normalized (max=100) [53]: 69.8126
SEAP [54]: 50.1494
SEAP normalized (max=100) [54]: 19.3746
SEAP [55]: 40.7727
SEAP normalized (max=100) [55]: 77.7639
SEAP [56]: 41.3533
SEAP normalized (max=100) [56]: 78.8713
SEAP [57]: 40.3779
SEAP normalized (max=100) [57]: 77.0109
SEAP [58]: 52.4314
SEAP normalized (max=100) [58]: 100
SEAP [59]: 43.8328
SEAP normalized (max=100) [59]: 83.6002
SEAP [60]: 28.8093
SEAP normalized (max=100) [60]: 54.9466
SEAP [61]: 14.8804
SEAP normalized (max=100) [61]: 28.3807
SEAP [62]: 13.0836
SEAP normalized (max=100) [62]: 24.9537
SEAP [63]: 6.8
SEAP normalized (max=100) [63]: 12.9702
SEAP [64]: 29.6608
SEAP normalized (max=100) [64]: 89.6354
SEAP [65]: 26.3749
SEAP normalized (max=100) [65]: 79.7051
SEAP [66]: 26.5882
SEAP normalized (max=100) [66]: 80.3497
SEAP [67]: 28.0379
SEAP normalized (max=100) [67]: 84.7308
SEAP (Supp Fig 10b, Bcl2-v4, venetoclax 100 nM): 26.0079
